Where two headings read alike, the source gives them in different places.
Experiments:
[1] = tested on: p52 (NF-kB2) nuclear translocation in HeLa cells; experiment: p52 (NF-kB2) nuclear translocation assay in HeLa cells, anti-lymphotoxin beta receptor antibody stimulated (non-classical NF-kB signaling), high content imaging; assay type: cell-based; conditions: 100 ng/mL anti-lymphotoxin beta receptor antibody for 5 hours, read-out: p52 HeLa Transloc Assay (IC50)
In short: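 HeLa cells in 10% FBS medium were treated with compound (0.2% DMSO final) and stimulated with 100 ng/mL anti-lymphotoxin beta receptor antibody for 5 h. Fixed cells were immunostained for p52 and imaged with DRAQ5 nuclear stain. Translocation is the nuclear to cytoplasmic intensity ratio, […].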

[2] = tested on: REL-A (p65) nuclear translocation in HeLa cells; experiment: REL-A (p65) nuclear translocation assay in HeLa cells, TNF-α stimulated (classical NF-kB signaling), high content imaging; assay type: cell-based; conditions: compound 4.5 h, then 10 ng/mL TNF-α for 30 minutes, read-out: REL-A HeLa Transloc Assay (IC50)
In short: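 HeLa cells in medium with 10% fetal bovine serum were exposed to compounds (0.2% DMSO final) for 4.5 hours, then stimulated with 10 ng/mL TNF-α for 30 minutes. After fixation in 4% paraformaldehyde and permeabilization with 0.1% Triton X-100, cells were stained with 400 ng/mL anti-REL-A (p65) antibody, an Alexa488 secondary and DRAQ5. Opera imaging quantified the nuclear-to-cytoplasmic signal ratio to give IC50.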

[3] = biological target: T1, nuclear factor-kappa B (NF-kB)-inducing kinase (NIK) (Homo sapiens, UniProt Q99558); experiment: NIK enzyme inhibition assay (Transcreener ADP fluorescence polarization, NIK ADP-FP); assay type: biochemical
T1 construct: made in house; host or cells: baculovirus-infected insect cells
T1 sequence (Q99558 whole entry): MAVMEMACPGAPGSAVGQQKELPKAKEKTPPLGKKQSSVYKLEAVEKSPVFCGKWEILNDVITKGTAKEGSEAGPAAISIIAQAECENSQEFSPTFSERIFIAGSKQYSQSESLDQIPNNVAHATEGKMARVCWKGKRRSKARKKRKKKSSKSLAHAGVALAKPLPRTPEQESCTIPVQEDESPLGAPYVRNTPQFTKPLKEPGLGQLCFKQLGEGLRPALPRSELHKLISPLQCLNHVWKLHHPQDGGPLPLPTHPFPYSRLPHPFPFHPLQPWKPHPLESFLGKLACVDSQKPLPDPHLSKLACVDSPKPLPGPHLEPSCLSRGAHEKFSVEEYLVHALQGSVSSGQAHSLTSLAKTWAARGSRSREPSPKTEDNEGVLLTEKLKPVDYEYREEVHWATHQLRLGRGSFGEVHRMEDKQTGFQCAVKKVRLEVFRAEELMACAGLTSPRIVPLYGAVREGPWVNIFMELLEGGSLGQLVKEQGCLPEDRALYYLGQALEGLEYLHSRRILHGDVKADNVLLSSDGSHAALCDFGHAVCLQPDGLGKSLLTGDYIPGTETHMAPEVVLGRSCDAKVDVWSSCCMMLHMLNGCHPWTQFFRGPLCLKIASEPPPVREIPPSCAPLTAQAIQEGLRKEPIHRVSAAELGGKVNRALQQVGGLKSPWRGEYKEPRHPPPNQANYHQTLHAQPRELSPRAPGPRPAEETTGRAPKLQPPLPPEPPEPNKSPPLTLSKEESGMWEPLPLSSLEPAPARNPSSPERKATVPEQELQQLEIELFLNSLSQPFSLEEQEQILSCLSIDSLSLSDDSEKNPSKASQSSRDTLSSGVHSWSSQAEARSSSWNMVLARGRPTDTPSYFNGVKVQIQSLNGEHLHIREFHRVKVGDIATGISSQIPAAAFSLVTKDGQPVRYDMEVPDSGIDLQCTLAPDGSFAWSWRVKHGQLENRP

| SMILES | IC50 ([1]; Homo sapiens) | IC50 ([2]; Homo sapiens, HeLa) | Ki [3] | IC50 [1] | IC50 [2] | Ki ([3]; purified NIK 0.5 nM, 10 μM ATP, pH 7.2, Ki from Morrison's quadratic equation) |
| --- | --- | --- | --- | --- | --- | --- |
| CN1CC[C@@](O)(C#Cc2cc3c(c(-c4cccc(C(N)=O)n4)c2)OCC3)C1=O [Example 77, 6-[5-[2-[(3R)-3-hydroxy-1-methyl-2-oxo-pyrrolidin-3-yl]ethynyl]-2,3-dihydrobenzofuran-7-yl] pyridine-2-carboxamide] | 247 nM | ≥ 20000 nM | 0.99 nM | – | – | – |
| CN1CC[C@@](O)(C#Cc2cccc(-c3cc4c(Cl)c[nH]c4c(C(N)=O)n3)c2)C1=O [Example 78, 3-chloro-5-[3-[2-[(3R)-3-hydroxy-1-methyl-2-oxo-pyrrolidin-3-yl]ethynyl]phenyl]-1H-pyrrolo[2,3-c]pyridine-7-carboxamide] | 8.3 nM | 15700 nM | 0.1 nM | – | – | – |
| CN1CC[C@@](O)(C#Cc2cccc(-c3nc(C(N)=O)c(NC4COC4)cc3F)c2)C1=O [Example 79, 5-fluoro-6-[3-[2-[(3R)-3-hydroxy-1-methyl-2-oxo-pyrrolidin-3-yl]ethynyl]phenyl]-3-(oxetan-3-ylamino)pyridine-2-carboxamide] | 9.86 nM | ≥ 20000 nM | 0.05 nM | – | – | – |
| COCCNc1cc(F)c(-c2cccc(C#C[C@]3(O)CCN(C)C3=O)c2)nc1C(N)=O [Example 80, 5-fluoro-6-[3-[2-[(3R)-3-hydroxy-1-methyl-2-oxo-pyrrolidin-3-yl]ethynyl]phenyl]-3-(2-methoxyethylamino) pyridine-2-carboxamide] | 4.65 nM | ≥ 20000 nM | 0.05 nM | – | – | – |
| CN1CC[C@@](O)(C#Cc2cccc(-c3nc(C(N)=O)c(NC[C@@H]4CCO4)cc3F)c2)C1=O [Example 81, 5-fluoro-6-[3-[2-[(3R)-3-hydroxy-1-methyl-2-oxo-pyrrolidin-3-yl]ethynyl]phenyl]-3-[[(2S)-oxetan-2-yl]methylamino] pyridine-2-carboxamide] | 50.8 nM | ≥ 2000 nM | 0.05 nM | – | – | – |
| CN1CC[C@@](O)(C#Cc2cccc(-c3nc(C(N)=O)c(NC[C@H]4CCO4)cc3F)c2)C1=O [Example 82, 5-fluoro-6-[3-[2-[(3R)-3-hydroxy-1-methyl-2-oxo-pyrrolidin-3-yl]ethynyl]phenyl]-3-[[(2R)-oxetan-2-yl]methylamino] pyridine-2-carboxamide] | 95.5 nM | ≥ 2000 nM | 0.33 nM | – | – | – |
| CN1CC[C@@](O)(C#Cc2cccc(-c3nc(C(N)=O)c(NCC(F)(F)F)cc3F)c2)C1=O [Example 83, 5-fluoro-6-[3-[2-[(3R)-3-hydroxy-1-methyl-2-oxo-pyrrolidin-3-yl]ethynyl]phenyl]-3-(2,2,2-trifluoroethylamino) pyridine-2-carboxamide] | 11 nM | 1000 nM | 0.15 nM | – | – | – |
| CN1CC[C@@](O)(C#Cc2ccc(F)c(-c3ccc(N)c(C(N)=O)n3)c2)C1=O [Example 84, 3-amino-6-[2-fluoro-5-[2-[(3R)-3-hydroxy-1-methyl-2-oxo-pyrrolidin-3-yl]ethynyl]phenyl] pyridine-2-carboxamide] | 14.2 nM | 1000 nM | 0.05 nM | – | – | – |
| CN1CC[C@@](O)(C#Cc2ccc(F)c(-c3ccc(NC4COC4)c(C(N)=O)n3)c2)C1=O [Example 85, 6-[2-fluoro-5-[2-[(3R)-3-hydroxy-1-methyl-2-oxo-pyrrolidin-3-yl]ethynyl]phenyl]-3-(oxetan-3-ylamino)pyridine-2-carboxamide] | 5.88 nM | 6320 nM | 0.05 nM | – | – | – |
| COCCNc1ccc(-c2cc(C#C[C@]3(O)CCN(C)C3=O)ccc2F)nc1C(N)=O [Example 86, 6-[2-fluoro-5-[2-[(3R)-3-hydroxy-1-methyl-2-oxo-pyrrolidin-3-yl]ethynyl]phenyl]-3-(2-methoxyethylamino) pyridine-2-carboxamide] | 6.27 nM | ≥ 20000 nM | 0.1 nM | – | – | – |
| CN1CC[C@@](O)(C#Cc2cccc(-c3ncc(NC4CC4)c(C(N)=O)n3)c2)C1=O [Example 87, 5-(cyclopropylamino)-2-[3-[2-[(3R)-3-hydroxy-1-methyl-2-oxo-pyrrolidin-3-yl]ethynyl]phenyl] pyrimidine-4-carboxamide] | 4 nM | 1000 nM | 0.14 nM | – | – | – |
| CN1CC[C@@](O)(C#Cc2cccc(-c3ncc(NC4COC4)c(C(N)=O)n3)c2)C1=O [Example 88, 2-[3-[2-[(3R)-3-hydroxy-1-methyl-2-oxo-pyrrolidin-3-yl]ethynyl]phenyl]-5-(oxetan-3-ylamino) pyrimidine-4-carboxamide] | 2.12 nM | ≥ 20000 nM | 0.05 nM | – | – | – |
| COCCNc1cnc(-c2cccc(C#C[C@]3(O)CCN(C)C3=O)c2)nc1C(N)=O [Example 89, 2-[3-[2-[(3R)-3-hydroxy-1-methyl-2-oxo-pyrrolidin-3-yl]ethynyl]phenyl]-5-(2-methoxyethylamino) pyrimidine-4-carboxamide] | 32.4 nM | 1000 nM | 0.05 nM | – | – | – |
| CN1CC[C@@](O)(C#Cc2ccc(F)c(-c3cccc(C(N)=O)n3)c2)C1=O [Example 92, 6-[2-fluoro-5-[2-[(3R)-3-hydroxy-1-methyl-2-oxo-pyrrolidin-3-yl]ethynyl]phenyl]pyridine-2-carboxamide] | 133 nM | ≥ 20000 nM | 0.39 nM | – | – | – |
| COc1ccc2nc(-c3cccc(C#C[C@]4(O)CCN(C)C4=O)c3)nc(C(N)=O)c2c1 [Example 93, 2-[3-[2-[(3R)-3-hydroxy-1-methyl-2-oxo-pyrrolidin-3-yl]ethynyl]phenyl]-6-methoxy-quinazoline-4-carboxamide] | 21 nM | 6320 nM | 0.15 nM | – | – | – |
| Cc1cc(C#C[C@]2(O)CCN(C)C2=O)cc(-c2nccc(C(N)=O)n2)c1 [Example 94, 2-[3-[2-[(3R)-3-hydroxy-1-methyl-2-oxo-pyrrolidin-3-yl]ethynyl]-5-methyl-phenyl]pyrimidine-4-carboxamide] | 175 nM | ≥ 20000 nM | 1.41 nM | – | – | – |
| Cc1ccc(-c2cc(C(N)=O)nc(-c3cccc(C#C[C@]4(O)CCN(C)C4=O)c3)n2)cn1 [Example 95, 2-[3-[2-[(3R)-3-hydroxy-1-methyl-2-oxo-pyrrolidin-3-yl]ethynyl]phenyl]-6-(6-methyl-3-pyridyl)pyrimidine-4-carboxamide] | 55.2 nM | ≥ 20000 nM | 0.49 nM | – | – | – |
| CN1CC[C@@](O)(C#Cc2cccc(-c3nc(C(N)=O)cc(-c4cnccn4)n3)c2)C1=O [Example 96, 2-[3-[2-[(3R)-3-hydroxy-1-methyl-2-oxo-pyrrolidin-3-yl]ethynyl]phenyl]-6-pyrazin-2-yl-pyrimidine-4-carboxamide] | 34.7 nM | ≥ 20000 nM | 0.45 nM | – | – | – |
| CN1CC[C@@](O)(C#Cc2cccc(-c3nc(C(N)=O)cc(-c4cc(F)cc(F)c4)n3)c2)C1=O [Example 97, 6-(3,5-difluorophenyl)-2-[3-[2-[(3R)-3-hydroxy-1-methyl-2-oxo-pyrrolidin-3-yl]ethynyl]phenyl]pyrimidine-4-carboxamide] | 57.5 nM | ≥ 20000 nM | 0.37 nM | – | – | – |
| CN1CC[C@@](O)(C#Cc2cccc(-c3nc(C(N)=O)cc(-c4cc(F)ccc4F)n3)c2)C1=O [Example 98, 6-(2,5-difluorophenyl)-2-[3-[2-[(3R)-3-hydroxy-1-methyl-2-oxo-pyrrolidin-3-yl]ethynyl]phenyl]pyrimidine-4-carboxamide] | 82 nM | ≥ 20000 nM | 0.23 nM | – | – | – |
| CN1CC[C@@](O)(C#Cc2cccc(-c3nc(OC4COC4)cc(C(N)=O)n3)c2)C1=O [Example 99, 2-[3-[2-[(3R)-3-hydroxy-1-methyl-2-oxo-pyrrolidin-3-yl]ethynyl]phenyl]-6-(oxetan-3-yloxy) pyrimidine-4-carboxamide] | 104 nM | ≥ 20000 nM | 0.48 nM | – | – | – |
| CN1CC[C@@](O)(C#Cc2cccc(-c3ncc(NCC4COC4)c(C(N)=O)n3)c2)C1=O [Example 100, 2-[3-[2-[(3R)-3-hydroxy-1-methyl-2-oxo-pyrrolidin-3-yl]ethynyl]phenyl]-5-(oxetan-3-ylmethylamino) pyrimidine-4-carboxamide] | 11.6 nM | ≥ 20000 nM | 0.1 nM | – | – | – |
| COC(C)(C)CNc1cnc(-c2cccc(C#C[C@]3(O)CCN(C)C3=O)c2)nc1C(N)=O [Example 101, 2-[3-[2-[(3R)-3-hydroxy-1-methyl-2-oxo-pyrrolidin-3-yl]ethynyl]phenyl]-5-[(2-methoxy-2-methyl-propyl)amino]pyrimidine-4-carboxamide] | 92.6 nM | ≥ 20000 nM | 0.52 nM | – | – | – |
| CN1CC[C@@](O)(C#Cc2cccc(-c3ncc(NCCN4CCOCC4)c(C(N)=O)n3)c2)C1=O [Example 102, 2-[3-[2-[(3R)-3-hydroxy-1-methyl-2-oxo-pyrrolidin-3-yl]ethynyl]phenyl]-5-(2-morpholinoethylamino) pyrimidine-4-carboxamide] | 66.9 nM | ≥ 20000 nM | 0.21 nM | – | – | – |
| Cc1cnn(-c2cc(C(N)=O)nc(-c3cccc(C#C[C@]4(O)CCN(C)C4=O)c3)n2)c1 [Example 104, 2-[3-[2-[(3R)-3-hydroxy-1-methyl-2-oxo-pyrrolidin-3-yl]ethynyl]phenyl]-6-(4-methylpyrazol-1-yl) pyrimidine-4-carboxamide] | – | – | – | 69.2 nM | ≥ 20000 nM | 0.4 nM |
